Legend:
[1] = target: T1, FGFR2 (Homo sapiens, UniProt P21802, K310R/N549K); test: pERK potency assay (In Cell ELISA), AN3CA cells; assay type: cell-based; settings: for IC50: pERK, AN3CA (FGFR2/k310R, N549K) cells, 3 hours; for FGFR1 IC50/FGFR2 IC50 / FGFR3 IC50/FGFR2 IC50: selectivity ratio, pERK potency; for FGFR1 IC50/FGFR2 IC50: FGFR2 relative to FGFR1; for FGFR3 IC50/FGFR2 IC50: FGFR2 relative to FGFR3
T1 construct: in FGFR aberrations of AN3CA (FGFR2/k310R, N549K); host or cells: AN3CA
In short: (§1)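 IC50 values come from a 4-parameter sigmoidal fit of in-cell ELISA chemiluminescent pERK (Thr202/Tyr204) signal. Treatment lasted 3 h at 37 °C, final 0.000038 to 10 μM in 4-fold steps, using AN3CA (mutant FGFR2), DMS114 (amplified FGFR1) and RT112 (FGFR3 overexpression/fusion) cells.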

[2] = target: T2, FGFR1 (Homo sapiens, UniProt P11362); test: pERK potency assay (In Cell ELISA), DMS114 cells; assay type: cell-based; settings: DMS114 (FGFR1 amplification) cells, 3 hours
T2 construct: DMS114 (FGFR1 amplification); host or cells: DMS114
T2 sequence (P11362 22-822): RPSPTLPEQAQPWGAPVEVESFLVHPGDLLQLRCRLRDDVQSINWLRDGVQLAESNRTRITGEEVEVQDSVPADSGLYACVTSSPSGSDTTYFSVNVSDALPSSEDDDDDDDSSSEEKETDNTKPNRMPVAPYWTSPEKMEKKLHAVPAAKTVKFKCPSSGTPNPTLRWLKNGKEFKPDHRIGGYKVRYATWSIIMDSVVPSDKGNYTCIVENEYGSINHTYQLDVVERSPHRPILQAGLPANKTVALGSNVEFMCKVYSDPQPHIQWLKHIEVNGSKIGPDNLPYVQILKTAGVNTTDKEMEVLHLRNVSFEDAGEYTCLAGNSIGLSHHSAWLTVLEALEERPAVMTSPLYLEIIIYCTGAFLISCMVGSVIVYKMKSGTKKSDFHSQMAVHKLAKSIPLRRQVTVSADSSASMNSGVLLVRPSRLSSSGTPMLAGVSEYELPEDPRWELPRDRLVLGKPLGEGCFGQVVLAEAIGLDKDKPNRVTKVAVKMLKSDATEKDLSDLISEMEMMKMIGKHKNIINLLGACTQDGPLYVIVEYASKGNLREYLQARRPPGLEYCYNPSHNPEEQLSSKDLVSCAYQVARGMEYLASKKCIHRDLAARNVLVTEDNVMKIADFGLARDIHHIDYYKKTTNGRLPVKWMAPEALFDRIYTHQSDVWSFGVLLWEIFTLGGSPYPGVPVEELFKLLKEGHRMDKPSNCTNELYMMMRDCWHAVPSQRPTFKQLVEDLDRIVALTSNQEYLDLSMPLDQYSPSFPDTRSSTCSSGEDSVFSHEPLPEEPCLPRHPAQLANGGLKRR
In short: as §1

[3] = test system: SNU-16; test: 2D cell proliferation assay, SNU-16; assay type: cell-based; settings: Homo sapiens, 96 hours, CTG, read-out: Cell Line, IC50 SNU-16
Experimental: (§2) Low IC50 values are indicative of the high potency of the FGFR inhibitor compounds in this assay selling. […] Cell proliferation assays are performed in two-dimensional (2D)) anchorage-dependent conditions in 96 well plates (Corning® Black/Clear flat Bottom, Cat #3603) with the following cell lines: • Ba/F3 FGFR2-BICC1 (human […]): Mouse Ba/F3 cell line stably expressed exogenous human FGFR2-BICC1 fusion gene bearing V546F mutation in FGFR2 Ba/F3; • FGFR2-BICC1 (human FGFR2/[…]): Mouse Ba/F3 cell line stably expressed exogenous human FGFR2-BICC1 fusion gene bearing N549K mutation in FGFR2; • Snu-16: human gastric cancer cell with FGFR2 amplification; • KATO III: human gastric cancer cell with FGFR2 amplification; • AN3CA: Human endometrial cancer with FGFR2 mutation (k310R, N549K); • MFM-223: Human breast cancer with FGFR1/2 amplification; • MFE-296: Human endometrial cancer with FGFR2 mutation (N549K); • MFE-280: Human endometrial cancer with FGFR2 mutation ([…]); • NCI-H1581: human non-small cell lung cancer with FGFR1 amplification; • KG-1a: Acute myelogenous leukemia with FGFR1OP2-FGFR1 translocation; • DMS114: human small cell carcinoma of the lung with FGFR1 amplification; • RT112: human bladder cancer with FGFR3 overexpression/FGFR3-TACC3 fusion; • SW780: human bladder cancer with FGFR3 overexpression/FGFR3-BALAP2L1 fusion; • Hep3B: Liver cancer with FGF19 amplification (FGFR4 ligand); • AGS: Human gastric adenocarcinoma with Kras G12D mutation and FGFR wild type; • PC-9: human non-small cell lung cancer (NSCLC) with wild-type FGFR and an EGFR del19 mutation; or • H1975: human non-small cell lung cancer (NSCLC) with wild-type FGFR and EGFR L858R/T790M mutation.
(§3) Cell lines are purchased from the American Type Culture Collection (ATCC) or Sigma. All cell lines are maintained in RPMI-1640 or DMEM supplemented with 10% heat-inactivated fetal bovine serum.
(§4) Cells growing in the log phase are detached with Gibco™ TrypLE™ Express Enzyme and plated in 96 well plate at 3000 to 5000 cells/well in 100 μl of media. After overnight incubation at 37° C., 5% CO2 incubator, cells are treated with compounds (50 uL/well) at the final concentrations spanning from 0.000038 uM to 10 μM (4-fold serial dilution for total of 10 points). Cells are incubated at 37° C., 5% CO2, and 95% humidity incubator for 96 hours. At the end of incubation 2D CTG reagent from Promega was added to each well according to vendors recommendation and mixed for 10 min in dark. The luminescence signals are determined with a Biotek™ plate reader. Data is fitted using a sigmoidal curve analysis program (GraphPad Prism®) with variable hill slope and IC50 is determined.

[4] = test system: AN3CA; test: 2D cell proliferation assay, AN3CA; assay type: cell-based; settings: Homo sapiens, AN3-CA, 96 hours, CTG, read-out: Cell Line, IC50 AN3CA
Experimental: as §2, §3, §4

[5] = test system: KATO III; test: 2D cell proliferation assay, KATO III; assay type: cell-based; settings: Homo sapiens, 96 hours, CTG, read-out: Cell Line, IC50 KATO III
Experimental: as §2, §3, §4

[6] = target: T3, Ba/F3 FGFR2-N549K (Homo sapiens, UniProt P21802, N549K, cells depend on it); test: 2D cell proliferation assay, Ba/F3 FGFR2-N549K; assay type: cell-based, mouse; settings: 96 hours, CTG, read-out: Cell Line, IC50 Ba/F3 FGFR2-N549K
T3 construct: fused on or other part: Q9H694 (Protein bicaudal C homolog 1)
T3 sequence (P21802 whole entry N549K, the tested form may be a part): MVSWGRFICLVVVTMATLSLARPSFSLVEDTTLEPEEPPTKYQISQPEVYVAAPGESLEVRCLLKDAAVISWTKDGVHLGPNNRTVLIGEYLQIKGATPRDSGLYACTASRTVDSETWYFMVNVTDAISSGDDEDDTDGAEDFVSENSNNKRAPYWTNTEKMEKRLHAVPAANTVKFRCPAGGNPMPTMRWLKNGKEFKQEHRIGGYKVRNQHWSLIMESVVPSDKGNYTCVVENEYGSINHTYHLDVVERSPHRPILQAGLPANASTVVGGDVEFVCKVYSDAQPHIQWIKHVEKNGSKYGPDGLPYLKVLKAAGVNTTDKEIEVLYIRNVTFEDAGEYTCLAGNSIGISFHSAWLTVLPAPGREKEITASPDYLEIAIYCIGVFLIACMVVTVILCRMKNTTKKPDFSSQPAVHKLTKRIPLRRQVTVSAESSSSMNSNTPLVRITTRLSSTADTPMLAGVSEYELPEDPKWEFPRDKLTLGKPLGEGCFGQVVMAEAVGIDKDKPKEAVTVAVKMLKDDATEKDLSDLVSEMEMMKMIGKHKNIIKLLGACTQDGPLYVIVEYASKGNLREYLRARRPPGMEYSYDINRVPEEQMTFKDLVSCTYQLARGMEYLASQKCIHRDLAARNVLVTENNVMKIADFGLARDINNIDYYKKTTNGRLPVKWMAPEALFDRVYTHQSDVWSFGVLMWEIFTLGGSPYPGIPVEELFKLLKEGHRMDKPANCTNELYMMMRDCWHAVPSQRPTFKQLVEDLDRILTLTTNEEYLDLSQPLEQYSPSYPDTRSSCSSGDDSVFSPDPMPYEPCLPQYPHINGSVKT
In short: (§5)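 Cells seeded at 3000–5000 cells/well in RPMI-1640 or DMEM with 10% FBS, treated next day with compounds at 0.000038–10 μM final (4-fold, 10 points) for 96 h at 37°C, 5% CO2. Viability by CellTiter-Glo luminescence; IC50 from sigmoidal variable-slope fit.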

[7] = target: T4, FGFR3 (Homo sapiens, UniProt P22607); test: pERK potency assay (In Cell ELISA), RT112 cells; assay type: cell-based; settings: RT112 (FGFR3 overexpression/FGFR3-TACC3 fusion) cells, 3 hours
T4 construct: RT112 (FGFR3 overexpression/FGFR3-TACC3 fusion); host or cells: RT112; the other entry of the earlier key: TACC3 (Q9Y6A5, Transforming acidic coiled-coil-containing protein 3)
In short: as §1

[8] = target: T5, Ba/F3 FGFR2-V564F (Homo sapiens, UniProt P21802, V564F, cells depend on it); test: 2D cell proliferation assay, Ba/F3 FGFR2-V564F; assay type: cell-based, mouse; settings: 96 hours, CTG, read-out: Cell Line, IC50 Ba/F3 FGFR2-V564F
T5 construct: fused on or other part: Q9H694 (Protein bicaudal C homolog 1)
T5 sequence (P21802 whole entry V564F, the tested form may be a part): as the sequence (P21802 whole entry N549K, the tested form may be a part) above, with K549N, V564F counted along it
In short: as §5

T1 sequence (P21802 22-821 K310R/N549K): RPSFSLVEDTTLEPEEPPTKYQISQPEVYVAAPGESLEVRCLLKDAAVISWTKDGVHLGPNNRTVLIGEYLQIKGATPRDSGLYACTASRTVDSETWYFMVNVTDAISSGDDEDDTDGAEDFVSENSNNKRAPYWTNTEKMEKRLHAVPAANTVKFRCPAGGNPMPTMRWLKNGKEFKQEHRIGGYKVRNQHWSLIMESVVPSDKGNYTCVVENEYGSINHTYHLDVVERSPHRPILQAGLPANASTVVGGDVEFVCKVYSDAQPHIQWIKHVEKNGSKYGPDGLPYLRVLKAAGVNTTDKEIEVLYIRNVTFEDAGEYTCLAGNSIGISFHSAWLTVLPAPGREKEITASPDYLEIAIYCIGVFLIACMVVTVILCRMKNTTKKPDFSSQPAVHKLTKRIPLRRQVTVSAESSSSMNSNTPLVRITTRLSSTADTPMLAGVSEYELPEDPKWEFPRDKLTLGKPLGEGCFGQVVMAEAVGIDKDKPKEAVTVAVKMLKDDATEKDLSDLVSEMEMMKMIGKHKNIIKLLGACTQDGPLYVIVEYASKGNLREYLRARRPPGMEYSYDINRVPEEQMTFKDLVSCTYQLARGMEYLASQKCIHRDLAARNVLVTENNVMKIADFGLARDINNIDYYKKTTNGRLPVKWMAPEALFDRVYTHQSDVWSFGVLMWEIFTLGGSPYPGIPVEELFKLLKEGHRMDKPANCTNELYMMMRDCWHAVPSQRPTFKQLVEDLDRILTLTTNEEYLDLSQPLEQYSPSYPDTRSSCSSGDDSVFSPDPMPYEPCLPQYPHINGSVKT

Row | IC50 [1] [nM] | IC50 [2] [nM] | IC50 [3] [nM] | GI50 [6] [nM] | IC50 [7] [nM] | GI50 [8] [nM] | Compound | FGFR1 IC50/FGFR2 IC50 [1] | FGFR3 IC50/FGFR2 IC50 [1] | IC50 [4] [nM] | IC50 [5] [nM]
1 | 1 to 10 | > 100 | 1 to 10 | 10 to 30 | > 100 | > 100 | C=CC(=O)N1CCC2(CC=C(c3c(C#N)c4c(N)ncnc4n3C)CC2)CC1 [Example 57, 6-(3-acryloyl-3-azaspiro[5.5]undec-8-en-9-yl)-4-amino-7-methyl-7H-pyrrolo[2,3-d]pyrimidine-5-carbonitrile] | G (a selectivity ratio greater than 150 but less than or equal to 500) | H (a selectivity ratio greater than 500 but less than or equal to 1000) | 1 to 10 | 1 to 10
2 | 1 to 10 | > 100 | 10 to 30 | 10 to 30 | > 100 | 1 to 10 | C=CC(=O)N1CCC2(CC=C(c3[nH]c4ncnc(N)c4c3-c3ncccn3)CC2)CC1 [Example 58, 1-(9-(4-amino-5-(pyrimidin-2-yl)-7H-pyrrolo[2,3-d]pyrimidin-6-yl)-3-azaspiro[5.5]undec-8-en-3-yl)prop-2-en-1-one] | G (a selectivity ratio greater than 150 but less than or equal to 500) | H (a selectivity ratio greater than 500 but less than or equal to 1000) | 1 to 10 | 10 to 30
3 | 1 to 10 | > 100 | 30 to 100 | 1 to 10 | > 100 | ≤ 1 | C=CC(=O)N1CCC2(CC=C(c3c(-c4cnccn4)c4c(N)ncnc4n3C)CC2)CC1 [Example 59, 1-(9-(4-amino-7-methyl-5-(pyrazin-2-yl)-7H-pyrrolo[2,3-d]pyrimidin-6-yl)-3-azaspiro[5.5]undec-8-en-3-yl)prop-2-en-1-one] | F (a selectivity ratio greater than 50 but less than or equal to 150) | H (a selectivity ratio greater than 500 but less than or equal to 1000) | 30 to 100 | 30 to 100
4 | 1 to 10 | > 100 | 10 to 30 | 10 to 30 | > 100 | ≤ 1 | C=CC(=O)N1CCC2(CC=C(c3c(-c4ccc(Oc5nccc(C)n5)c(F)c4)c4c(N)ncnc4n3C)CC2)CC1 [Example 62, 1-(9-(4-amino-5-(3-fluoro-4-((4-methylpyrimidin-2-yl)oxy)phenyl)-7-methyl-7H-pyrrolo[2,3-d]pyrimidin-6-yl)-3-azaspiro[5.5]undec-8-en-3-yl)prop-2-en-1-one] | F (a selectivity ratio greater than 50 but less than or equal to 150) | G (a selectivity ratio greater than 150 but less than or equal to 500) | 30 to 100 | 10 to 30

— patent US20260152503A1, “SPIROBICYCLIC COMPOUNDS” (ACERAND THERAPEUTICS (HONG KONG) LIMITED, priority 2022, published 2026)
